The values below come from patent EP1605929B1, “NON-STEROIDAL ANTI-INFLAMMATORY DRUG DOSING REGIMEN” (McNeil-PPC, Inc., priority 2003, dated 2004).

The test system of assay [1] is moderate to severe post-operative dental pain. In words: PK/PD dental pain study, pain relief scores and pain intensity differences over a 12 hour observation period. The class given is in vivo, human. The protocol: A double-blind, randomized, parallel, placebo-controlled, single center, PK/PD dental pain study was conducted over a 12 hour observation period to evaluate the pharmacokinetic, pharmacodynamic, efficacy and safety profiles of certain ibuprofen dosing regimens. Specifically, a single dose of 600 mg ibuprofen extended release caplets was compared with equivalent total doses of ibuprofen immediate release 200 mg caplets administered in three different dosing regimens as well as placebo in the treatment of moderate to severe post-operative dental pain.
The ibuprofen was administered as ibuprofen extended release 600 mg caplets or one or more ibuprofen immediate release 200 mg caplets.
The patients evaluated in this study consisted of male or non-pregnant and non-lactating female out-patient volunteers, 16 years of age or older, complaining of moderate to severe pain following the surgical extraction of three or four third molars with at least one partial or complete bony impacted third mandibular molar. The term impacted included: partial bony impaction, bony impaction, or complicated bony impaction. A total of 210 patients were entered into the study. 208 patients were eligible for the efficacy analyses.
All patients who met the entrance criteria were enrolled in one of two study sub-groups. One sub-group of patients had both pharmacokinetic and pharmacodynamic evaluation (PK group). The other sub-group of patients had only the analgesic efficacy evaluations (non-PK group). A separate randomization schedule was used for each of the two sub-groups. Patients from both subgroups were assigned at random to one of the five following treatments:
Patients' assessments of pain intensity and pain relief as well as blood samples for plasma ibuprofen analysis were obtained at the study site at hours 0, 0.25, 0.5, 1, 1.5, 2, 2.5, 3, 4, 4.5, 5, 6, 7, 8, 8.5, 9, 10, 11 and 12. A stopwatch technique was used to measure the onset of meaningful pain relief.

Assay [2] can be described thus: Therapeutic duration of action of an effective immediate release dose, from dosing instructions in product labeling. The protocol:
As used herein, "ATDAIRD" shall mean the average therapeutic duration of action of an effective immediate release dose" of a particular active ingredient. For example, the typical duration of action of an immediate release dose of ibuprofen or ketoprofen is about 4 to about 6 hours. […] The therapeutic duration of action of a particular active ingredient can readily be determined from the dosing instructions in the labeling for immediate release products containing that particular active ingredient.

As to `CC(C)Cc1ccc(C(C)C(=O)O)cc1` (centres unmarked) [ibuprofen, 2-(4-isobutylphenyl)-propionic acid], the pain relief entry in assay [1] (400/200/0 administration (immediate release, 400 mg at 0 hour; 200 mg at 4 hours), entire 12 hour study period, Figure 2) is recorded as “excellent pain relief”; in assay [1] (400/200/0 treatment (immediate release, 400 mg at 0 hour; 200 mg at 4 hours), first four hours, Figure 2), “superior pain relief over the other treatments”; in assay [1] (600/0/0 immediate release treatment (600 mg single dose at 0 hour), first four hours, Figure 2), “superior pain relief over the other treatments”. For the same molecule, the pain relief scores result in assay [1] (400/200/0 treatment, 4 to 12 hour interval, no further ibuprofen after the first four hours, Figure 2) is on record as “highest pain relief scores”. The “pain intensity differences (PID)” value in assay [1] (400/200/0 treatment, 12 hour study period, particularly after the four hour mark, Figure 3) is recorded as “best PID”. In assay [2], the “ATDAIRD (average therapeutic duration of action of an effective immediate release dose)” value (“ATDAIRD” below) was 5 h.

Turning to `CC(C(=O)O)c1cccc(C(=O)c2ccccc2)c1` (centres unmarked) [ketoprofen], in assay [2], the “ATDAIRD” value was 5 h.

`COc1ccc2cc([C@H](C)C(=O)O)ccc2c1` [naproxen]: the “ATDAIRD” value in assay [2] amounted to 10 h.
